Reference: USRE48468E1, “Means and methods for counteracting muscle disorders” (BioMarin Technologies B.V., priority 2007, dated 2021)
Where a SMILES comes first, the peptide text is derived from it. The star is where a group is joined. Cbz = O=C(OCc1ccccc1)*

What was measured:
DMD gene exon 45 = experiment: Exon 45 skipping in control myotubes transfected with PS221 in presence of pentoxifylline (RT-PCR); assay type: cell-based, human; details: 250 nM PS221, 0 to 0.5 mg/ml pentoxifylline, RNA 24 hrs after transfection
Protocol: (§1) A., B. Differentiated muscle cell cultures (myotubes) derived from a healthy control individual were transfected with 250 nM PS188 ([5′ […] 3′; SEQ ID NO:10] an AON optimized to specifically skip exon 44) or 250 nM PS221 ([5′ […] 3′; SEQ ID NO: 60] an AON optimized to specifically skip exon 45) in the presence of 0 to 0.5 mg/ml pentoxifylline, using the transfection reagent polymer UNIFectylin (2.0 μl UNIFectylin per μg AON in 0.15M NaCl). UNIFectylin interacts electrostatically with nucleic acids, provided that the nucleic acid is negatively charged (such as 2′-O-methyl phosphorothioate AONs). Pentoxyfillin (Sigma Aldrich) was dissolved in water. Total RNA was isolated 24 hrs after transfection in RNA-Bee solution (Campro Scientific, The Netherlands) according to the manufacturer's instructions. For cDNA synthesis with reverse transcriptase (Roche Diagnostics, The Netherlands), 500 ng of RNA was used in a 20 μl reaction at 55° C. for 30 min, reverse primed with DMD gene-specific primers. First PCRs were performed with outer primer sets, for 20 cycles of 94° C. (40 sec), 60° C. (40 sec), and 72° C. (60 sec). One μl of this reaction (diluted 1:10) was then re-amplified using nested primer combinations in the exons directly flanking exon 44 or 45, with 30 cycles of 94° C. (40 sec), 60° C. (40 sec), and 72° C. (60 sec). PCR products were analysed on 2% agarose gels. Skipping efficiencies were determined by quantification of PCR products using the DNA 1000 LabChip® Kit and the Agilent 2100 bioanalyzer (Agilent Technologies, The Netherlands).

dystrophin = details: mdx mice; variability among animals; cited from earlier work
DMD gene exon 44 = experiment: Exon 44 skipping in control myotubes transfected with PS188 in presence of pentoxifylline (RT-PCR); assay type: cell-based, human; details: 250 nM PS188, 0 to 0.5 mg/ml pentoxifylline, RNA 24 hrs after transfection
Protocol: as §1

[1] = tested on: exon 23 of the dystrophin gene; experiment: Exon 23 skipping in mdx mice treated with PS49 with or without pentoxyfilline (RT-PCR); assay type: in vivo
Protocol: In a pre-clinical study in mdx mice (animal model for DMD) the effect of adjunct compound pentoxyfilline on AON-induced exon skipping was assessed. Mdx mice (C57Bl/10ScSn-mdx/J) were obtained from Charles River Laboratories (The Netherlands). These mice are dystrophin-deficient due to a nonsense mutation in exon 23. AON-induced exon 23 skipping is therapeutic in mdx mice by removing the nonsense mutation and correction of the open reading frame. Two mdx mice per group were injected subcutaneously with: Group 1) pentoxyfilline (50 mg/kg, wk 1-2), Group 2) mouse-specific antisense oligonucleotide PS49 designed to specifically induce exon 23 skipping (100 mg/kg, wk 2 (2 times), Group 3) pentoxyfilline (50 mg/kg, wk 1-2)+PS49 (100 mg/kg, wk 2 (2 times). PS49 (5′ […] 3′) has a full-length phosphorothioate backbone and 2′O-methyl modified ribose molecules.
All mice were sacrificed at 1 week post-last-injection. Different muscles groups, including quadriceps, tibialis anterior, triceps and heart muscles were isolated and frozen in liquid nitrogen-cooled 2-methylbutane. […] PCR products were analysed on 2% agarose gels. Skipping efficiencies were determined by quantification of PCR products using the DNA 1000 LabChip® Kit and the Agilent 2100 bioanalyzer (Agilent Technologies, The Netherlands).

20S and 26S proteasomes = details: read-out: Ki (proteasomal inhibitor); cited from earlier work
[2] = tested on: exon 23 of the dystrophin gene; experiment: Exon 23 skipping in mdx mice treated with PS49 with or without prednisolone (RT-PCR); assay type: in vivo
Protocol: Two mdx mice per group were injected subcutaneously with: Group 1) physiologic salt (wk 1-8), Group 2) prednisolone (1 mg/kg, wk 1-8), Group 3) mouse-specific antisense oligonucleotide PS49 designed to specifically induce exon 23 skipping (100 mg/kg, wk 4 (5 times), week 5-8 (2 times), Group 4) prednisolone (1 mg/kg, wk 1-8)+PS49 (100 mg/kg, wk 4 (5 times), week 5-8 (2 times). PS49 (5′ [sequence] 3′) has a full-length phosphorothioate backbone and 2′O-methyl modified ribose molecules.
All mice were sacrificed at 1 week post-last-injection. Different muscles groups, including quadriceps, tibialis anterior, and diaphragm muscles were isolated and frozen in liquid nitrogen-cooled 2-methylbutane. For RT-PCR analysis, the muscle samples were homogenized in the RNA-Bee solution (Campro Scientific, The Netherlands). Total RNA was isolated and purified according to the manufacturer's instructions. For cDNA synthesis with reverse transcriptase (Roche Diagnostics, The Netherlands), 300 ng of RNA was used in a 20 μl reaction at 55° C. for 30 min, reverse primed with mouse DMD gene-specific primers. First PCRs were performed with outer primer sets, for 20 cycles of 94° C. […] PCR products were analysed on 2% agarose gels. Skipping efficiencies were determined by quantification of PCR products using the DNA 1000 LabChip® Kit and the Agilent 2100 bioanalyzer (Agilent Technologies, The Netherlands).

[3] = mdx mice, s.c., sacrificed 1 week post-last-injection

PS221: 5′ AUUCAAUGUUCUGACAACAGUUUGC 3′; SEQ ID NO: 60; an AON optimized to specifically skip exon 45 (chemistry not given here)
exon 45 skipping levels (DMD gene exon 45): increasing levels

gentamicin
novel dystrophin expression, of normal level (dystrophin): up to 20%

CC(=O)CCCCn1c(=O)c2c(ncn2C)n(C)c1=O [pentoxifylline]
exon 44 skipping levels (DMD gene exon 44): enhances exon skipping levels
exon 44 skipping levels (DMD gene exon 44; listed as pentoxyfilline): enhanced
exon 45 skipping levels (DMD gene exon 45): enhances exon skipping levels
exon 45 skipping levels (DMD gene exon 45; listed as pentoxyfilline): enhanced
exon 23 skipping in muscles (RT-PCR) [1, 3]: No exon 23 skipping was observed
exon 23 skipping levels, PS49 plus pentoxyfilline (group 3) compared to PS49 only (group 2) ([1]; quadriceps, tibialis anterior, triceps, heart, pentoxyfilline 50 mg/kg wk 1-2, PS49 100 mg/kg): enhances exon 23 skipping levels

CC(C)C[C@@H](C=O)NC(=O)[C@H](CC(C)C)NC(=O)[C@H](CC(C)C)NC(=O)OCc1ccccc1 [MG-132, CBZ-leucyl-leucyl-leucinal] (Cbz-Leu-Leu-Leu-aldehyde)
Ki (20S and 26S proteasomes): 4 nM

PS188: 5′ UCAGCUUCUGUUAGCCACUG 3′; SEQ ID NO:10; an AON optimized to specifically skip exon 44 (chemistry not given here)
exon 44 skipping levels (DMD gene exon 44): increasing levels

C[C@]12C=CC(=O)C=C1CC[C@@H]1[C@@H]2[C@@H](O)C[C@@]2(C)[C@H]1CC[C@]2(O)C(=O)CO [prednisolone]
exon 23 skipping in muscles (RT-PCR) [2, 3]: No exon 23 skipping was observed
exon 23 skipping levels, PS49 plus prednisolone (group 4) compared to PS49 only (group 3) ([2]; quadriceps, tibialis anterior, diaphragm, prednisolone 1 mg/kg wk 1-8, PS49 100 mg/kg): enhances exon 23 skipping levels
